These results are taken from ChEMBL document CHEMBL1152075, “Synthesis and SAR of diiodotyrosine-derived glycine-site N-methyl-D-aspartate receptor ligands” (Bioorg Med Chem Lett, 1996).

pIC50: −log10 of the molar value.

The target of the first assay is Glutamate NMDA receptor. The experiment in a line: Ability to displace [3H]L-689560 from NMDA receptor glycine site in rat brain membranes. It is filed as cell membranes.
`N[C@H](Cc1cc(I)c(Oc2cc(I)c(O)c(I)c2)c(I)c1)C(=O)O` [DEXTROTHYROXINE] showed a negative logarithm of the IC50 (pIC50) of 6.48.

Turning to `N[C@H](Cc1cc(I)c(OCCc2cccc(O)c2)c(I)c1)C(=O)O`, the pIC50 is 6.46.

In the case of `N[C@@H](Cc1cc(I)c(OCCc2ccc(O)cc2)c(I)c1)C(=O)O`, the pIC50 is below 4.00.

In turn, `N[C@H](Cc1cc(I)c(Oc2ccc(O)cc2)c(I)c1)C(=O)O` gave a pIC50 of 5.39.

The compound `N[C@H](Cc1cc(I)c(OCCc2ccccc2)c(I)c1)C(=O)O` gave a pIC50 of 6.29.

In turn, `N[C@H](Cc1ccc(OCCc2ccccc2)c(I)c1)C(=O)O` showed a pIC50 of 5.14.

In the case of `NC(Cc1cc(I)c(OCCc2ccc(O)cc2)c(I)c1)C(=O)O` (configuration not stated), the pIC50 is 6.05.

`N[C@H](Cc1ccc(OCCc2ccccc2)cc1)C(=O)O`: the pIC50 was 4.00. Compared with the last compound, the pIC50 is 2.05 log units lower.

In turn, `COC(=O)[C@H](N)Cc1cc(I)c(OCCc2ccc(O)cc2)c(I)c1` gave a pIC50 of 4.00.

Compound `CC(=O)N[C@H](Cc1cc(I)c(OCCc2ccc(O)cc2)c(I)c1)C(=O)O` had a negative logarithm of the IC50 (pIC50) below 4.00.

Regarding `N[C@H](Cc1cc(I)c(OCCc2ccncc2)c(I)c1)C(=O)O`, the pIC50 was 6.34.

With `N[C@H](Cc1cc(I)c(OCc2ccccc2)c(I)c1)C(=O)O`, the pIC50 is 6.10.

As for `CCOc1c(I)cc(C[C@@H](N)C(=O)O)cc1I`, the pIC50 was 5.82.

`N[C@H](Cc1cc(I)c(O)c(I)c1)C(=O)O` had a pIC50 of 4.00.

For a further assay, the species on record is Rattus norvegicus. Kind of assay: In vitro antagonist potency was determined by blockade of NMDA- induced depolarizations on rat cortical slices. The format is functional.
In turn, `N[C@H](Cc1cc(I)c(OCCc2cccc(O)c2)c(I)c1)C(=O)O` showed a Kb of 2500 nM.

Regarding `N[C@H](Cc1cc(I)c(OCCc2ccncc2)c(I)c1)C(=O)O`, the Kb turned out to be 670 nM.

Take `N[C@H](Cc1cc(I)c(OCCc2ccc(O)cc2)c(I)c1)C(=O)O`: the Kb is 2200 nM.

For orientation: pIC50 means the IC50 on a negative log10 scale, so that one unit is a factor of ten. A higher pIC50 goes with a small IC50. Broadly, the Kb is the equilibrium dissociation constant of an antagonist, usually derived from a functional assay. Low values mean a more potent antagonist, high ones a less potent antagonist.
